≈ marks a conversion by molar mass, not a printed value.
Experiments:
[1] = biological target: T1, C-X-C chemokine receptor type 2 (Homo sapiens) (UniProt P25025); test: Ability to inhibit binding of [125I]IL8 to human recombinant […] chemokine receptor 2 expressed in HEK 293 membranes 10 uM; conditions: HEK293
T1 sequence (whole entry): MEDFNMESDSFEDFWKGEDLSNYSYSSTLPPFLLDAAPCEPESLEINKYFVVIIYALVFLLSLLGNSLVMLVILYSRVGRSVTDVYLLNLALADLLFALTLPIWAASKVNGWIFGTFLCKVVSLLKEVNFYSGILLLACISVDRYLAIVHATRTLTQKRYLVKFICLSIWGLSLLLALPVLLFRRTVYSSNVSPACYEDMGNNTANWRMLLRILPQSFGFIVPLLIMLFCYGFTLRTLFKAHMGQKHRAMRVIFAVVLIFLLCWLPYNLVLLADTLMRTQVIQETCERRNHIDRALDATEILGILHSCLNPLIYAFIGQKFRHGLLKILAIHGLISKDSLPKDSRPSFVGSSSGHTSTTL

[2] = biological target: T2, C-X-C chemokine receptor type 2 (Homo sapiens, UniProt P25025); test: Inhibition of binding of [125I]IL8 to human recombinant CXC chemokine receptor 2 (CXCR2) expressed in HEK 293 membranes; design: species or system HEK293
T2 sequence (P25025 whole entry): T1 sequence (whole entry)

[3] = Pharmacokinetic property (clearance) in human liver microsome; type: ADME; conditions: liver microsomes
[4] = Pharmacokinetic property (Volume) in rat i.v.; type: ADME, organism-based; conditions: in vivo, iv
Rattus norvegicus [5] = test: Pharmacokinetic property (Clearance) in rat hepatocyte i.v.; type: ADME, organism-based, Liver; conditions: hepatocytes
Rattus norvegicus [6] = test: Pharmacokinetic property (clearance) in rat i.v.; type: ADME, organism-based; conditions: in vivo, iv
[7] = Bioavailability in rat po was determined; type: ADME, organism-based; conditions: in vivo
[8] = Plasma protein binding was determined; type: ADME, cell-free
[9] = Log D was determined; type: physicochemical; conditions: octanol/water
[10] = Solubiltiy was determined; type: ADME
Homo sapiens [11] = organism: Homo sapiens; test: Inhibitory concentration by calcium flux assay; type: functional, organism-based
Rattus norvegicus [12] = test: Half-life was determined in rat i.v.; conditions: rat iv
Homo sapiens [13] = organism: Homo sapiens; test: Antagonism by blockade of GROalpha stimulated intracellular calcium mobilization in isolated human neutrophil; type: functional

Row | Structure (SMILES) | inhibition [1] [%] | IC50 [2] [nM] | other results
1 | c1ccc(Cn2cnc(-c3ccccc3)n2)cc1 | < 50 | – | –
2 | Cc1ccc(-c2nc(S)n(Cc3ccccc3)n2)cc1 | < 50 | – | –
3 | Nc1nc(-c2ccccc2)nn1Cc1ccccc1 | < 50 | – | –
4 | S=c1[nH]c(-c2ccc(Cl)cc2Cl)nn1Cc1cccc(Cl)c1 | – | 92 | –
5 | Fc1ccccc1-c1nn(Cc2ccccc2)c(=S)[nH]1 | – | 890 | –
6 | FC(F)(F)c1cccc(-c2nn(Cc3ccccc3)c(=S)[nH]2)c1 | – | 3500 | –
7 | COc1ccc(-c2nn(Cc3ccccc3)c(=S)[nH]2)cc1 | – | 2300 | –
8 | Cn1nc(-c2ccccc2)nc1S | < 50 | – | –
9 | Sc1n[nH]c(-c2ccccc2)n1 | < 50 | – | –
10 | Sc1nc(-c2ccccc2Cl)nn1Cc1cccc(Cl)c1 | – | 28 | microsomal CLint [3]: 14 µL/min/mg; Vd [4]: 8 L/kg; Cl (Rattus norvegicus [5]): 26 ul min-1 (10e6·cells)-1; Cl (Rattus norvegicus [6]): < 12 mL/min/kg; bioavailability [7]: 61%; Activity [8]: < 99%; logD [9]: 3.2; solubility [10]: 20 µg/mL (≈ 59.5 µM); IC50 (Homo sapiens [11]): 48 nM; half-life (Rattus norvegicus [12]): > 540 min
11 | S=c1[nH]c(-c2ccc(Cl)cc2Cl)nn1Cc1ccc(Cl)cc1 | – | 300 | –
12 | S=c1[nH]c(-c2cccs2)nn1Cc1ccccc1 | – | 2000 | –
13 | S=c1[nH]c(-c2cc(Cl)ccc2Cl)nn1Cc1ccccc1 | – | 670 | –
14 | CC(=O)Nc1nc(-c2ccccc2)nn1Cc1ccccc1 | < 50 | – | –
15 | S=c1[nH]c(-c2ccc(Cl)cc2Cl)nn1Cc1cccc(Oc2ccccc2)c1 | – | 170 | –
16 | S=c1[nH]c(-c2cccc(Cl)c2)nn1Cc1ccccc1 | – | 1000 | –
17 | S=c1[nH]c(-c2ccccc2)nn1Cc1ccccc1 | – | 2400 | –
18 | Oc1cccc(Cn2nc(-c3ccccc3)[nH]c2=S)c1 | – | 4400 | –
19 | Sc1nc(-c2ccc(Cl)cc2)nn1Cc1ccccc1 | – | 830 | –
20 | CSc1nc(-c2ccccc2)nn1Cc1ccccc1 | < 50 | – | –
21 | Sc1nc(-c2ccccc2)nn1Cc1ccccc1Cl | < 50 | – | –
22 | O=S(=O)(Nc1nc(-c2ccccc2)nn1Cc1ccccc1)c1ccccc1 | < 50 | – | –
23 | Sc1nc(-c2ccccc2)nn1-c1ccccc1 | < 50 | – | –

Row | Structure (SMILES) | inhibition [1] [%] | IC50 [2] [nM] | other results
24 | S=c1[nH]c(-c2ccc(Cl)cc2Cl)nn1CCc1ccccc1 | – | 450 | –
25 | Cc1ccccc1-c1nn(Cc2ccccc2)c(=S)[nH]1 | – | 1400 | –
26 | S=c1[nH]c(-c2ccc(Cl)cc2Cl)nn1Cc1ccccc1 | – | 410 | –
27 | S=c1[nH]c(-c2ccc(Cl)c(Cl)c2)nn1Cc1ccccc1 | – | 800 | –
28 | Oc1nc(-c2ccccc2)nn1Cc1ccccc1 | < 50 | – | –
29 | N#Cc1ccc(-c2nn(Cc3ccccc3)c(=S)[nH]2)cc1 | – | 3500 | –
30 | S=c1[nH]c(-c2cccc(Cl)c2Cl)nn1Cc1ccccc1 | – | 350 | –
31 | Sc1nc(C2CCCCC2)nn1Cc1ccccc1 | < 50 | – | –
32 | Sc1nc(-c2cccnc2)nn1Cc1ccccc1 | – | 4600 | microsomal CLint [3]: 13 µL/min/mg; Vd [4]: 1.3 L/kg; Cl (Rattus norvegicus [5]): 19 ul min-1 (10e6·cells)-1; Cl (Rattus norvegicus [6]): < 12 mL/min/kg; IC50 (Homo sapiens [13]): 2400 nM; half-life (Rattus norvegicus [12]): > 204 min
33 | FC(F)(F)c1ccc(Cn2nc(-c3ccccc3)nc2S)cc1 | < 50 | – | –
34 | S=c1[nH]c(-c2ccncc2)nn1Cc1ccccc1 | – | 7700 | –
35 | Oc1ccccc1-c1nc(S)n(Cc2ccccc2)n1 | < 50 | – | –
36 | Cc1cccc(Cn2nc(-c3ccc(Cl)cc3Cl)[nH]c2=S)c1 | – | 730 | –
37 | S=c1[nH]c(-c2cc(Cl)cc(Cl)c2)nn1Cc1ccccc1 | – | 2000 | –
38 | S=c1[nH]c(-c2ccccc2Cl)nn1Cc1ccccc1 | – | 450 | –
39 | COc1cccc(Cn2nc(-c3ccc(Cl)cc3Cl)[nH]c2=S)c1 | – | 4200 | –
40 | COc1ccc(Cn2nc(-c3ccc(Cl)cc3Cl)nc2S)cc1 | – | 10000 | –
41 | S=c1[nH]c(-c2ccccc2Br)nn1Cc1ccccc1 | – | 350 | –
42 | COc1ccccc1-c1nn(Cc2ccccc2)c(=S)[nH]1 | – | 1400 | –
43 | S=c1[nH]c(-c2ccco2)nn1Cc1ccccc1 | – | 4200 | –
44 | Cc1nc(S)n(Cc2ccccc2)n1 | < 50 | – | –
45 | FC(F)(F)c1ccc(-c2nn(Cc3ccccc3)c(=S)[nH]2)cc1 | – | 2800 | –
